From US9730935B2, “Targeting a non-canonical notch signaling pathway for cancer treatment” (The Board of Trustees of the Leland Stanford Junior …, priority 2013, dated 2017)

Key:
[1] = system: Drosophila larval brain NBs (N-induced NB expansion); experiment: Pharmacological treatment of N-GOF larvae: ectopic NB formation in larval brain; assay type: in vivo; settings: Mdivi-1 5 μM in food, 0.5% DMSO vehicle control, larval brains at 120 hr ALH, PntP1>N-V5
Experimental: Pharmacological treatment of larvae. Mdivi-1 (Enzo Life Science) dissolved in 0.5% DMSO was mixed in instant Drosophila media at 5 μM final concentration. 0.5% DMSO alone was used as vehicle control. Embryos were collected on Mdivi-1 containing food or control food for 6 hrs at 25° C. and allowed to develop further to 120 hr ALH before larval brain dissection and immunostaining.
Immunohistochemistry. For larval brain immunostaining, larvae were dissected in Schneider's medium (Invitrogen) and fixed with 4% formaldehyde in PEM buffer (100 mM PIPES at pH 6.9, 1 mM EGTA, 1 mM MgCl2) for 23 min at room temperature. Immunohistochemistry of TH and mito-GFP in Drosophila brain was performed as described (Wu et al., 2013). […] For thoracic muscle mitochondrial morphology analysis, mito-GFP was expressed in thoracic muscle using the Mhc-Gal4 driver and indirect flight muscles were dissected in PBS and examined under fluorescence confocal microscope. […]

[2] = system: Drosophila muscle tissue; experiment: Western blot of mitochondrial fraction after CCCP treatment
Experimental: (§1) Co-Immunoprecipitation and Western blot analysis. Approximately 25 adult fly thoraces were collected and homogenized in HBS buffer (210 mM Mannitol, 70 mM Sucrose, 5 mM HEPES pH 7.4, 1 mM EGTA) containing protease inhibitor (Sigma). The lysate was centrifuged at 1,300 g for 10 min, and the supernatant was collected and centrifuged again at 13,000 g for 15 min. For co-IP, the cytosolic and the mitochondrial fractions were incubated with anti-GFP conjugated protein G-agarose beads (Upstate) at 4° C. for 2 hours. Beads were washed 3× with PBS for 5 min each. Proteins were eluted and analyzed by WB as described (Wu et al., 2013). For co-IP assays using human NSC and GBM cells, soluble extracts of isolated mitochondrial fractions were incubated with a mixture of anti-human PINK1 (Abcam) and protein G-agarose beads (Upstate). The primary antibodies used were: pS505-dAKT and AKT (Cell Signaling Technology), Actin (Millipore), NICD (DSHB), NDUFS3 (MitoScience), complex IV subunit I (MitoScience), Drp-1 (L. Pallanck), Calnexin (Novus), PDE1 (MitoScience), Tom20 (Santa Cruz), KDEL (Enzo Life Science), Rab5 (Abcam), Rab7 (Abcam), rat anti-hNotch1 (1:200; DSBH). Rabbit anti-dPINK1 was generated as described (Yang et al., 2006).
(§2) Mitochondria purification. Intact mitochondria from fly heads, fly thoraces and cultured cells were purified at described previously (Wu et al., 2013). […]

[3] = system: HEK 293T cells; experiment: as above; assay type: cell-based, human
Experimental: as §1, §2

SMILES | N-induced NB expansion / ectopic NB formation and brain tumor formation [1] | amount of mitochondrial N [2] | mitochondrial PINK1 level [2] | amount of mitochondrial N [3] | mitochondrial PINK1 level [3]
COc1cc(-n2c(=S)[nH]c3ccccc3c2=O)c(Cl)cc1Cl [Mdivi-1] | attenuated | – | – | – | –
N#CC(C#N)=NNc1cccc(Cl)c1 [CCCP] | – | not affected | increased | not affected | increased
